US20190374158A1, “SYSTEM AND METHOD FOR MONITORING AND CONTROLLING A STATE OF A PATIENT DURING AND AFTER ADMINISTRATION OF […]” (The General Hospital Corporation, priority 2012, published 2019)

Experiments:
[1] = system: burst suppression; assay: physostigmine effect on stable burst suppression, rat EEG; type: in vivo, Sprague-Dawley rat; conditions: rat deeply anesthetized with 2% isoflurane
Description: The following description is with respect to an analysis of a rat under general anesthesia-induced burst suppression The BSP is compared to the BSR in order to illustrate its benefits. For the experiments described herein, signals were first band pass filtered between 5 and 30 Hz. The filtered signals were thresholded and suppression segments less than 500 milliseconds in duration were switched to 1. The binary series was then provided as an input to the BSP algorithm.
The BSP algorithm was evaluated on a rat EEG signal recorded to test whether physostigmine, a cholinergic agonist hypothesized to increase arousal, causes the burst suppression pattern observed during deep anesthesia to switch into continuous activity (associated with increased arousal). In this experiment, it is advantageous to know whether physostigmine, and not saline (control), induces a shift from burst suppression (deep anesthesia) to a delta wave pattern (lighter anesthesia). In case it does, it is desirable characterize the temporal dynamics of that change.
A rat pre-implanted with extradural EEG electrodes was deeply anesthetized with 2% isoflurane. After stabilization of the inhaled concentration, the EEG signal, was recorded for 10 minutes prior to a saline intravenous injection (control). Six minutes later, physostigmine was injected and the recording was maintained for an additional thirty minutes. […]

[2] = two-compartment pharmacokinetics model estimation, rat models; design: species or system rats; conditions: for σ scaling factor of infusion rate: rat two-compartment model; for K12 rate constant: rat two-compartment model fit to Vijn and Sneyd BSR time courses after 10-second bolus (8 mg kg^−1 propofol, 3.5 mg kg^−1 etomidate)
Description: In one clinical application, the control target may be to achieve and maintain a target BSR corresponding to medical coma, thereby maintaining an equilibrium effect-site concentration. To design a suitable but not overly-complex model, it may be assumed that, due to the time lag between central compartment drug infusion and effect-site concentration increase, there must be at least two compartments to accurately model the evolution of the drug concentrations. Such a simplified two-compartment model is composed of the central plasma compartment and the auxiliary effect-site compartment connected by a first-order transfer process, ignoring any other peripheral drug distribution compartments.
The pharmacokinetic model in FIG. 9A can be described by the second-order linear differential equation system: […]
for an infusion rate of ut, in units of μg/s, scaled by a factor of σ. The kinetic rate constants k12 and k21 govern the drug flow between compartments, while the rate constant k10 determines the rate of the drug's clearance from the central compartment. The slow peripheral compartment and fast peripheral compartment, common in many population models, are not included.
These estimated parameters were used to design the closed-loop controller (see below) in order to yield a critically damped system response, that is, the fastest rise times without overshoot.
For the human models, existing population pharmacokinetic models were calibrated for a 180-cm, 70-kg person. […] Since a patient may not enter a state of burst suppression the instant the effect-site concentration is nonzero, the concentration trace was shifted negatively and transformed to pt such that the patient peaked at a BSP of 0.7, and came out of burst suppression 7 minutes after the initiation of the dose. […] Anesthesiology 65: 19-27, which is incorporated herein by reference, was used to numerically evaluate the effect-site concentration during and after a 10-second bolus of […].
Matlab's Optimization Toolbox was used to optimize these four parameters of the pharmacokinetic model to minimize this mean squared error, and yield an estimate of the best-fit rate constants and scaling factor.

[3] = system: dopaminergic arousal pathway; conditions: cited from earlier work
[4] = system: burst suppression; conditions: patient after propofol bolus induction
Description: Typically, in the operating room, a bolus dose of an anesthetic is rapidly administered to induce general anesthesia. It is often the case that the patient enters burst suppression within seconds and might remain in that state for several minutes. Since the efficiency of the drug depends on several empirical factors, it is relevant to monitor the level of suppression that is reached and its trajectory, which may help detect any anomaly, or tune the subsequent doses or levels of anesthesia.
The EEG was recorded from a scalp electrode at the FP1 site referenced to the FZ electrode of the standard electrode configuration. […] The choice of Δ=250 corresponds to a resolution of one second as in the previous case.

[5] = system: alpha (8-13 Hz) power
Description: 14 patients were implanted with iEEG electrode arrays as part of standard clinical treatment for intractable epilepsy. The arrays included linear penetrating depth arrays having 6-8 electrodes, subdural grid arrays having 16-64 electrodes, and/or subdural strip arrays having 4-16 electrodes (Adtech Medical, Racine, Wis.) (FIG. 21). Surface EEG electrodes were additionally applied to six patients in a subset of the standard 10-20 EEG configuration. Electrode placement was selected by the patients' clinicians without regard to the current study. […] Recordings were obtained during electrode explant surgery that occurred after 1-3 weeks of inpatient monitoring to determine epileptogenic foci. Signal acquisition began prior to induction of general anesthesia and continued until the electrodes were disconnected for explant. EEG and iEEG signals were recorded with a sampling rate of a 2000, 500, or 250 Hz depending on settings of the hospital's clinical acquisition system. Signals were digitized with hardware amplifiers (XLTEK, Natus Medical, Inc., San Carlos, Calif.) that bandpassed between 0.3 Hz and the sampling rate, and were stored on a computer (Dell) for offline processing.
Drug protocols were selected by the patients' clinicians without regard to the current study.
Patients were delivered auditory stimuli through headphones (prerecorded words and the patient's name) approximately every 4 seconds during the task, and were instructed to respond with a button click. Responses were recorded using stimulus presentation software (Presentation, Neurobehavioral Systems, Inc., Albany, Calif., or EPrime, Psychology Software Tools, Inc., Sharpsburg, Pa.). […] This patient was excluded from group analyses of peri-LOC dynamics.
In each subject, two epochs were distinguished over the recording period. […] We used visual inspection to identify the postinduction epoch. […] Burst suppression intervals were excluded to avoid the confound of low-power suppression intervals in group analyses, which differed in total time across patients. […]

[6] = rat two-compartment model fit to Vijn and Sneyd BSR time courses after 10-second bolus

CNC(=O)Oc1ccc2c(c1)[C@]1(C)CCN(C)[C@@H]1N2C [physostigmine]
time out of suppression after injection [1]: around 10 minutes
BSP after injection ([1]; baseline BSP around 0.5): 0

CCOC(=O)c1cncn1[C@H](C)c1ccccc1 [Etomidate]
σ scaling factor of infusion rate [2]: 0.8394
K21 rate constant [2, 6]: 0.6703 min⁻¹
K12 rate constant [2]: 0.01547 min⁻¹

COC(=O)C(c1ccccc1)C1CCCCN1 (centres unmarked) [methylphenidate]
emergence from general anesthesia ([3]; isoflurane general anesthesia): actively induces emergence from isoflurane general anesthesia
minute ventilation ([3]; plethysmography and blood gas experiments): increases minute ventilation

CC(C)c1cccc(C(C)C)c1O [Propofol, 2,6-di-isopropylphenol]
σ scaling factor of infusion rate [2]: 0.5885
K10 rate constant (clearance from central compartment) [2, 6]: 4.552 min⁻¹
K21 rate constant [2, 6]: 0.9599 min⁻¹
K12 rate constant [2]: 0.01557 min⁻¹
BSP reached after slow second increase [4]: around 0.7
BSP, binary filter estimate, at minute 2 [4]: around 0.5
BSP, binary filter estimate, decrease after minute 2 [4]: around 0.2
BSP, smoother estimate, at minute 2 [4]: ~0.6
BSP, smoother estimate, decrease after minute 2 [4]: ~0.1
duration of burst suppression [4]: about 8 minutes
time after LOC to abrupt suppression of alpha power ([5]; Patient 9, occipital and temporal channels): ≤ 10 s
increase of median alpha power in the postinduction period ([5]; hippocampus, cingulate cortex, medial white matter electrodes): approximately 5 dB
change of alpha power in the postinduction period ([5]; occipital, parietal, inferotemporal cortex and primary auditory cortex): consistently decreased
